Data from patent publication US20240065261A1, “PENETRATING CRYOPROTECTION AGENTS AND METHODS OF MAKING AND USING SAME” (The Research Foundation for The State University of New York, priority 2020, published 2024).
Several values for one entry are separate records, joined by “and”; a condition that tells them apart may be missing. Equal values may be shown once.

Experiments:
Water solubility = format: physicochemical; details: pH 7.4, aqueous buffer
3T3 cells [1] = assay: Cytotoxicity by CCK-8 kit, Example 3; format: cell-based; details: 48 hours
Description: Cytotoxicity: Cytotoxicity of EGL-3Pro and EGL-3Phe were tested by CCK-8 kit on 3T3 cells after incubating for 48 hours at different concentrations.

3T3 cells [2] = assay: Cryopreservation, post-thaw recovery rate, Example 3; format: cell-based; details: frozen −80° C. in medium with 400 mM trehalose
Description: Cryopreservation: The cryopreservation effects of EGL-3Pro and EGL-3Phe were tested on 3T3 cells. The cells were incubated with 5 mM or 10 mM EGL-3Pro or 0.5 mM EGL-3Phe or medium only (two control groups) for 72 hours. After incubation, the cells were detached by treating […] pelleted by centrifuging (200×g). The cells were then resuspended in medium with 400 mM trehalose or 5% DMSO (for control 2 group) in cryovials and a small portion of cell suspension were used for counting pre-freeze cell number. The vials were directly put in −80° C. freezer and stored for at least 3 days. The cells were thawed in 37° C. water bath until ice melt, and resuspended in 10 mL fresh medium and pelleted by centrifuging (200×g). The cells were then resuspended in 1 mL fresh medium and counted by cell counter. The recovery rate was obtained by dividing post-thaw lived cell number by pre-freeze lived cell number.

NIH-3T3 cells [3] = assay: Post-thaw total cell recovery of cryopreserved cells (trypan blue exclusion); format: cell-based; details: for Total recovery values compared with cells frozen in media containing 5% DMSO: incubated with 10 mM; for Post-thaw recovery (%) 0-hr / Post-thaw recovery (%) 24-hr / Post-thaw recovery (%) 48-hr: incubated with 10 mM for 48 h, frozen −80° C. 72 h in media with 400 mM trehalose, ±SEM
Description: The delivery of sugar alcohols into cells makes it possible to turn these molecules into intracellular CPAs. […] Total post-thaw cell recovery, defined as the ratio (%) of post-thaw live cells to the number of initially frozen live cells, which provides a more accurate measure of cryoprotective outcome than cell viability, was used to assess the cryoprotective effects of the diesters.
Systematic studies were then performed by incubating the cells (1) with each of diesters 1-4 (10 mM), (2) with unmodified sorbitol, mannitol, xylitol, or erythritol (10 mM), and (3) in medium without any of the diesters or sugar alcohols, at 37° C. for 48 h. The cells treated with diesters 1-4 and the four sugar alcohols were then transferred to freezing media consisting of DMEM, 10% FBS and 400 mM trehalose. The cells incubated with only the medium were divided into two portions, one being directly transferred to the freezing medium containing 400 mM trehalose (control 1) and the other being placed in a different freezing medium consisting of DMEM, 10% FBS and 5% DMSO but without trehalose (control 2). After being frozen at −80° C. for 72 h, the cells were thawed in a warm water bath at 37° C. until ice melted. The post-thaw cells were either immediately analyzed for their survival or were cultured in growth media (DMEM with 10% FBS) for 24 h and 48 h before being analyzed.
Incubation (for cryopreservation). NIH/3T3 cells were seeded into cell culture treated plates (100 mm) at a density of 2×10^4 cells/mL (10 mL/plate), allowed to adhere overnight and then incubated with different sample solutions (10 mL) for 48 hours at 37° C. under 5% CO2. Control cells were incubated with growth medium.
Cryopreservation. At the end of the incubation, the cells were rinsed with PBS (2 mL) and detached using 0.25% trypsin-EDTA (3 mL). The cells were pelleted (200×g, 5 min) and resuspended in growth medium with 400 mM trehalose except for the control-2 group. For control-2 group, cells were resuspended in growth medium with 5% DMSO (v/v). An aliquot of cells of each group was then removed for counting by a DeNovix Celldrop cell counter to obtain prefreeze number of viable cells. The remaining cell suspension was transferred into a 2 mL cryogenic vial. The vials were directly transferred to −80° C. freezer without controlling cooling rate and stored at −80° C. freezer for 3 days. To thaw, cryogenic vials were removed from −80° C. freezer and suspended in a 37° C. water bath until ice melt. To the contents of each vial 1 mL growth medium was added and centrifuged (200×g , 5 min). The supernatant was discarded and cell pellet was resuspended in 1 mL growth cell medium. An aliquot of cell suspension of each group was then removed for counting with a DeNovix Celldrop cell counter to obtain the number of viable cells at 0-hr post-thaw. The remaining cell suspension was split equally and resuspended into two cell culture treated plates (100 mm) with 10 mL growth medium in each plate. The plates were then maintained for either 24 hours or 48 hours at 37° C. under 5% CO2. After being cultured for either 24 hours or 48 hours, the cells were rinsed with PBS (2 mL) and detached using 0.25% trypsin-EDTA (3 mL). The cells were pelleted (200×g, 5 min) and resuspended in growth medium. The cell suspension was then analyzed by DeNovix Celldrop cell counter to obtain number of viable cells at either 24-hr or 48-hr post-thaw.
Trypan Blue Exclusion Assay. For all time points, a sample of cells was mixed 1:1 in 0.4% trypan blue and counted using a DeNovix Celldrop. Cell recovery was calculated as the ratio of viable cells to the number of cells initially frozen.

NIH-3T3 cells [4] = assay: Cell size measurement after incubation with diesters; format: cell-based; details: 10 mM, 48 h incubation (FIG. 11)
Description: Incubation (for cell size measurement). NIH/3T3 cells were seeded into 6-well plates at a density of 5×10^4 cells/mL (2 mL/well), allowed to adhere overnight and then incubated with different sample solutions (2 mL) for 48 hours at 37° C. under 5% CO2. Control cells were incubated with culture medium.
Cell size measurement. At the end of the incubation, the cells were rinsed with PBS (1 mL) and detached by 0.25% trypsin-EDTA (1 mL). The cells were pelleted (200×g, 5 min) and resuspended in PBS (1 mL). The average cell size of the cell suspension was then obtained with a DeNovix Celldrop cell counter. Bright field/counted image and histogram for one count were attached as an example (FIG. 19). Average cell diameter and statistical analysis were obtained from the histograms.

NIH-3T3 cells [5] = assay: Live/dead fluorescence microscopy of post-thaw cells (calcein-AM / ethidium homodimer-1); format: cell-based; details: 24 h post-thaw; incubated with 10 mM for 48 h, frozen in media with 400 mM trehalose (FIG. 14)
Description: DIC and Fluorescence images capturing. NIH/3T3 cells were treated as the same as for cryopreservation experiment and were thawed in a 37° C. water bath until ice melt. Cells in each vial were then pelleted (200×g, 5 min), re-suspended in 1 mL fresh growth medium and plated into 96 well plate and grown for 24 hours. Each well was washed with sterile PBS (100 μL). Sterile PBS (200 μL) containing 2 μM calcein-AM and 4 μM ethidium homodimer-1 (EthD-1) was then added to each well. The 96-well plate was then incubated in a CO2 incubator at 37° C. for 30 min. Fresh cells without freezing were plated at similar density in 96-well plate as comparison. DIC and fluorescence microscopy images were captured at 509 and 580 nm on Axioplan 2 fluorescent microscope (Zeiss [Carl Zeiss], Thornwood, NY) with an Axiocam MRm camera (Zeiss). Axiovision 4 software (Zeiss) was used for image acquisition. Digital images were processed with ImageJ (imagej.nih.gov/ij/).

NIH-3T3 cells [6] = assay: Cell growth curve; format: cell-based; details: 10 mM, incubated for up to 72 hrs (FIG. 17)
Description: Cell growth curve. NIH/3T3 cells were seeded into 6-well plates at a density of 5×10^4 cells/mL (2 mL/well), allowed to adhere overnight and then incubated with different sample solutions (2 mL) up to 72 hours at 37° C. under 5% CO2. Control cells were incubated with culture medium. After certain time incubation, cells were rinsed with PBS (1 mL), detached by 0.25% trypsin-EDTA (1 mL), pelleted (200×g, 5 min) and resuspended in PBS (1 mL). The cell number were obtained by a DeNovix Celldrop cell counter. The 0 hour was set as the time point just after overnight adhering.

NIH-3T3 cells [7] = assay: Post-thaw viability of cryopreserved NIH-3T3 cells (CCK-8), Example 1; format: cell-based; details: Table 3, frozen −80° C. 72 hours, 400 mM trehalose, 10% DMSO set as 100%
Description: Cryopreservation protocol. […] Discarded 95% of the old media and added 0.5 mL new DMEM (pH=7.4) with 10% FBS and 400 mM trehalose (filtered with 0.22 μm filter) and re-suspended the cells. • Transferred the cell culture to cryo-tube and stored the tubes at −80° C. for 3 days. • Thawed the cells at 37° C. in a water bath until ice melted. • Counted the cell density in each cryo-tube with cell counter. • Re-cultured the cells in 96-well plate with fresh DMEM (PH=7.4) with 10% FBS. (while keeping cell density the approximately the same for each well). • Used CCK-8 kit to test the post-thaw viability after certain time.

NIH-3T3 cells [8] = assay: Post-thaw total cell recovery of cryopreserved cells (trypan blue exclusion); format: cell-based; details: incubated with 5 and 10 mM; frozen in media with 400 mM trehalose (FIG. 12)
[9] = incubated 36 hours at 5 mM without DMSO
[10] = incubated 36 hours at 10 mM without DMSO

Structure (SMILES) | solubility (Water solubility) | Cytotoxicity (3T3 cells [1]; above 1 mM) | Cytotoxicity (3T3 cells [1]; at 0.1 mM) | Cytotoxicity (3T3 cells [1]; at 0.5 mM) | 0-hour post thaw recovery (%) (3T3 cells [2]; incubated with 0.5 mM for 72 hours) | Cytotoxicity (3T3 cells [1]; up to 10 mM) | 0-hour post thaw recovery (%) (3T3 cells [2]; incubated with 5 mM for 72 hours) | 0-hour post thaw recovery (%) (3T3 cells [2]; incubated with 10 mM for 72 hours) | Total recovery values compared with cells frozen in media containing 5% DMSO (NIH-3T3 cells [3]) | Post-thaw recovery (%) 0-hr (NIH-3T3 cells [3]) | Post-thaw recovery (%) 24-hr (NIH-3T3 cells [3]) | Post-thaw recovery (%) 48-hr (NIH-3T3 cells [3]) | Average cell diameter relative to cells incubated with only the culture medium (NIH-3T3 cells [4]) | Post-thaw viability/recovery in fluorescence microscopy images (NIH-3T3 cells [5]) | Growth of cells relative to control (NIH-3T3 cells [6]) | Post-thaw viability (%), 24 hours post thaw (NIH-3T3 cells [7]; [9]) | Post-thaw viability (%), 48 hours post-thaw (NIH-3T3 cells [7]; [9]) | Post-thaw viability (%), 24 hours post thaw (NIH-3T3 cells [7]; [10]) | Post-thaw viability (%), 48 hours post-thaw (NIH-3T3 cells [7]; [10]) | Post-thaw 0 h and 48 h total recovery rates compared with cells incubated only with the media (NIH-3T3 cells [8])
N[C@@H](Cc1ccccc1)C(=O)OCC(COC(=O)[C@@H](N)Cc1ccccc1)OC(=O)[C@@H](N)Cc1ccccc1 [EGL-3Phe] | ≤ 2 mM | apparent cytotoxicity | no toxicity | residual cytotoxicity | 66.2 ± 10.1% |  |  |  |  |  |  |  |  |  |  |  |  |  |  | 
O=C(OCC(COC(=O)[C@@H]1CCCN1)OC(=O)[C@@H]1CCCN1)[C@@H]1CCCN1 [EGL-3Pro] | ≥ 10 mM |  |  |  |  | didn't show any toxicity | 50.1 ± 6.6% | 65.3 ± 7.3% |  |  |  |  |  |  |  |  |  |  |  | 
CCC(=O)OC[C@@H](O)[C@@H](O)[C@H](O)[C@H](O)COC(=O)CC [MannPr2] |  |  |  |  |  |  |  |  | the same as those seen with 5% DMSO | 84% and 84.1 ± 3.3% | 73.6 ± 3.2% | 184% and 184.1 ± 14.2% | small but statistically significant increases | much higher recovery than those treated with mannitol or sorbitol | slightly suppressed |  |  |  |  | 
CCC(=O)OC[C@@H](O)[C@@H](O)[C@H](O)[C@@H](O)COC(=O)CC [SorbPr2] |  |  |  |  |  |  |  |  | comparable to those obtained with cells frozen in media containing 5% DMSO | 72.4 ± 3.4% | 65.2 ± 2.2% | 153.2 ± 8.0% | small but statistically significant increases | much higher recovery than those treated with mannitol or sorbitol | slightly suppressed | 94.5 ± 9.1% | 130.1 ± 6.8% | 128.9 ± 2.5% | 183.0 ± 2.9% | above those of cells incubated only with the media
